# Data taken from article PMC9886550, “Molecular mechanism of topoisomerase poisoning by the peptide antibiotic albicidin” (Nature Catalysis, 2023).
# What was measured:
# [1] = target: T1, E. coli gyrase (Escherichia coli, UniProt P0AES4+P0AES6); assay: Gyrase cleavage of linear DNA fragments (Mu217 and others); assay type: biochemical; details: 1 µM albicidin
# T1 construct: alternative cryo-EM approach involving full-length E. coli gyrase; 10-His (cleaved yes); Twin-Strep (cleaved yes); made in house
# Method: Mu217 DNA (25 nM) was incubated with 0.4 µM gyrase and indicated concentrations (1 or 10 µM) of diazirine-labelled albicidin (photo-Albi, φAlbi) in a volume of 20 µl (~70 ng DNA) at 37 °C for 30 min in gyrase cleavage buffer (see section 'Topoisomerase assays'). For CFX competition experiments, 30 µM CFX was added first, followed by the albicidin. Reactions were either irradiated with ultraviolet 365 nm (benchtop transilluminator) with cooling (ice) for 30 min or left on ice for 30 min (‘dark’). Then, 0.2% SDS and 0.2 mg ml^−1 proteinase K were added to both samples, which were incubated for another 30 min. Reactions were mixed with loading dye (STEB) and chloroform:isoamyl alcohol (24:1 v/v) before vortexing and centrifugation. The aqueous phase was loaded on 4–20% TBE (Tris–borate–EDTA) polyacrylamide gel (Thermo) and ran for 1 h at 150 V. DNA was visualized with SYBR Gold (Thermo) staining.
# Extended Data Fig. 1 Length dependency of albicidin-mediated DNA cleavage. Position of cleaved DNA indicated by arrows and red dots. ATP and ADPNP were added as indicated, (----) stands for no nucleotide added. 20 nM gyrase, 1 µM albicidin and 25 nM DNA was used in each reaction.
# Extended Data Fig. 5 Photocrosslinking of diazirine-labelled albicidin (photo-Albi) to the DNA. a. Structures of N-terminal photo-Albi and control compound. b. DNA cleavage assay with Mu217 fragment and indicated concentrations of compounds. The labelled DNA band appearing upon irradiation of a photo-compound when bound to the complex is marked by a yellow star. c. Ciprofloxacin competition experiment. Pre-incubation with excess CFX prevents albicidin binding and crosslinking. Details of the experiment are available in Methods section.
# [2] = assay type: physicochemical; details: 100 µM in Topo IV assays
# Method: Supplementary Figure 11. Activity of albicidin and Albi-1/2/3 on E. coli topoisomerase IV. a. Plasmid relaxation activity of E. coli topo IV in the presence of albicidin, Albi-1, Albi-2 and Albi-3. First lane: negatively supercoiled pBR322; second lane: innate relaxation activity of E. coli topo IV (12.5 nM); third lane: effect of 20 µM CFX; subsequent lanes: effect of increasing compound concentration (0.1, 1, 10, 100 […]
# higher concentration. b. Cleavage activity of E. coli topo IV in the presence of albicidin, Albi-1, Albi-2 and Albi-3. First lane: negatively supercoiled pBR322; second lane: innate cleavage activity of E. coli topo IV (15 nM); third lane: effect of 20 µM CFX; subsequent lanes: effect of increasing compound concentration (0.1, 1, 10, 100 µM). […]
# concentration. All experiments were carried out in triplicates and representative gels […]
# (1 picture or pasted object on this page, not shown here)
# [3] = tested on: DNA gyrase; assay: DNA gyrase supercoiling inhibition assay (initial IC50 determination); assay type: biochemical, E. coli; details: vs Albi-3
# Method: For initial compound IC50 determination, DNA supercoiling experiments with DNA gyrase were performed in a total volume of 30 μl of gyrase buffer (Inspiralis). The reactions contained 500 ng relaxed pBR322 plasmid DNA, 1.5 U DNA gyrase (6 U μl^−1) and albicidin derivatives at a final concentration of between 2.5 and 320 nM. The final DMSO concentration used was 3%. Samples were incubated at 37 °C for 30 min and subsequently loaded on an agarose gel. Electrophoretic analysis was performed using a 1% agarose gel (100 V, 90 min). DNA bands were stained with ethidium bromide and subsequently quantified using ImageJ 1.53k software.
# Extended Data Fig. 8 Inhibition of supercoiling by Albi-1/2/3. a. Chemical structures of Albi-1, Albi-2 and Albi-3. b. Example supercoiling inhibition assay gels: Albi-1, decreasing concentrations (320, 160, 80, 40, 20, 10, 5, 2.5 nM); Albi-2 (320, 160, 80, 40, 20 nM); Albi-3 (960, 800, 640, 480, 320, 160, 80, 40 nM). First lane - relaxed pBR322; second lane - DNA gyrase. 40 nM albicidin was used as positive control (third lane). Different concentrations were tested and representative gels are shown.
# T1 sequence (P0AES4 whole entry, the tested form may be a part, one chain of several): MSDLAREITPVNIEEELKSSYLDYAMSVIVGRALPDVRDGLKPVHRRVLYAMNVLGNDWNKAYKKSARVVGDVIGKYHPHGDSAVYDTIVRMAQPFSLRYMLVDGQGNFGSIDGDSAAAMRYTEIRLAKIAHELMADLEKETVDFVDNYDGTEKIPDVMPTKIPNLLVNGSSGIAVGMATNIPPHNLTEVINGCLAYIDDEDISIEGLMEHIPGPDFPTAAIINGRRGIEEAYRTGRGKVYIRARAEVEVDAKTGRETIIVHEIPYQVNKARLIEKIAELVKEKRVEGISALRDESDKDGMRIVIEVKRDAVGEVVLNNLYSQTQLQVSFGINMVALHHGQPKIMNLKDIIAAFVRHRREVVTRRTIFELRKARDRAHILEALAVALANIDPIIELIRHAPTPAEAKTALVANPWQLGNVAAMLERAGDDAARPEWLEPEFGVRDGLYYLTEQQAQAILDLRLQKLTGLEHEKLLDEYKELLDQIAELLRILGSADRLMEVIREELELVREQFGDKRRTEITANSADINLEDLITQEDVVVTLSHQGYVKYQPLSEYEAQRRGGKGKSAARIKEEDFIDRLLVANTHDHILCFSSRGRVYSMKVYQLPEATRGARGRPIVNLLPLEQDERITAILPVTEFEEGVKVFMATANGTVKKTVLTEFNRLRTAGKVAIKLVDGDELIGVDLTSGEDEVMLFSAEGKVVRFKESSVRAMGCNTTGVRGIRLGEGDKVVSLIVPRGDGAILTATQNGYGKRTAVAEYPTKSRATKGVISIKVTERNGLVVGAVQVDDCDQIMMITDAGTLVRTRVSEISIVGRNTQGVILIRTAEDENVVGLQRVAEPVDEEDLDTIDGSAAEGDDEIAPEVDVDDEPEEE
smiles,measurement,setting,value
COc1c(NC(=O)c2ccc(NC(=O)c3ccc(NC(=O)[C@H](CC#N)NC(=O)c4ccc(NC(=O)/C(C)=C/c5ccc(O)cc5)cc4)cc3)c(OC)c2O)ccc(C(=O)O)c1O [Albicidin],cleavage of DNA fragments,[1]; fragments shorter than 150 bp or absence of a nucleotide,almost no cleavage
same,cleavage of the 217 bp Mu SGS fragment (Mu217),[1]; in the presence of ATP or ADPNP,strong cleavage
COc1c(NC(=O)c2ccc(NC(=O)c3ccc(NC(=O)[C@H](Cc4c[nH]nn4)NC(=O)c4ccc(NC(=O)c5ccc6nc(C)ccc6c5)cc4)cn3)c(OC)c2O)ccc(C(=O)O)c1O [Albi-3],solubility in assay,[2],solubility issues
COc1c(NC(=O)c2ccc(NC(=O)c3ccc(NC(=O)[C@H](Cc4c[nH]nn4)NC(=O)c4ccc(NC(=O)c5ccc6cc(O)ccc6c5)cc4)cn3)c(OCCN)c2O)ccc(C(=O)O)c1O [Albi-2],better activity in the gyrase inhibition assay than Albi-3,[3],~ 4 fold
